IC50 data for 21 compounds are collected here from patent US20080119513A1, “Sulfonamide Derivative Selectively Inhibiting Mmp-13” (priority 2004, published 2008).

Holding throughout (type): biochemical
For one test, the target named is T1, MMP-8 (Homo sapiens, UniProt P22894).
T1 construct: In regard to MMP-8, catalytic domain (^99Phe˜^262Gly) was amplified with PCR; His-tag; enterokinase digestion-site
Nature of the test: Assay for inhibitory activities on MMPs (fluorogenic peptide substrate), MMP-8. From the text: In regard to MMP-8, catalytic domain (^99Phe˜^262Gly) was amplified with PCR using commercial available Human Bone Marrow cDNA. This was cloned in Escherichia coli expression vector pTrc99AHE inserted with His-tag sequence and enterokinase digestion-site, induced and expressed by IPTG (Isopropyl-β-D-thiogalactopyranoside) and expressed in a insoluble fraction (Than F. Ho, M. Walid Qoronfleh, Robert C. Wahl, Trica A. Pulvino, Karen J. Vavra, Joe Falvo, Tracey M. Banks, Patricia G. Brake and Richard B. Ciccarelli: Gene expression, purification and characterization of recombinant human neutrophil collagenase. Gene 146, (1994) 297-301. It was prepared by the method in a slight modification). Isolation of MMP-8 from an insoluble fraction was carried out by dissolving in modifier (6 M urea) by a usual method and purification with metal chelate chromatography. And then removing modifier (6 M urea) with dialysis and refolding of the enzyme spontaneously gave activated MMP-8.
(§1) The enzymatic activity on MMPs was analyzed by the method described in “C. Graham Knight, Frances Willenbrock and Gillian Murphy: A novel coumarin-labelled peptide for sensitive continuous assays of the matrix metalloproteinases: FEBS LETT., 296, (1992), 263-266”. The substrate: MOCAc-Pro-Leu-Gly-Leu-A2Pr(DNP)-Ala-Arg-NH2 was purchased from Peptide Institute, Inc., Osaka, Japan. The measurement of the inhibitory activities (IC50) was carried out by the following four methods;
(§2) (A) Reaction with substrate, enzyme (MMPs) and inhibitor
(§3) (B) Reaction with substrate and inhibitor, without enzyme
(§4) (C) Reaction with substrate and enzyme (MMPs), without inhibitor
(§5) (D) Reaction with substrate only
(§6) IC50 values were calculated by using the following formula and each fluorescence values of above four methods (A to D).
(§7) % inhibition={1-(A−B)/(C−D)}×100
(§8) IC50 means the concentration required to inhibit 50% of the enzyme activity.
(§9) The value of inhibitory activity against MMP-2, MMP-8, MMP-9, MMP-12, and MMP-13 measured by above mentioned methods are shown in Table 25 and 26.

In another test the target is MMP-9 (Homo sapiens, UniProt P14780). Kind of test: Assay for inhibitory activities on MMPs (fluorogenic peptide substrate), MMP-9.
MMP-9, sequence (P14780 107-707): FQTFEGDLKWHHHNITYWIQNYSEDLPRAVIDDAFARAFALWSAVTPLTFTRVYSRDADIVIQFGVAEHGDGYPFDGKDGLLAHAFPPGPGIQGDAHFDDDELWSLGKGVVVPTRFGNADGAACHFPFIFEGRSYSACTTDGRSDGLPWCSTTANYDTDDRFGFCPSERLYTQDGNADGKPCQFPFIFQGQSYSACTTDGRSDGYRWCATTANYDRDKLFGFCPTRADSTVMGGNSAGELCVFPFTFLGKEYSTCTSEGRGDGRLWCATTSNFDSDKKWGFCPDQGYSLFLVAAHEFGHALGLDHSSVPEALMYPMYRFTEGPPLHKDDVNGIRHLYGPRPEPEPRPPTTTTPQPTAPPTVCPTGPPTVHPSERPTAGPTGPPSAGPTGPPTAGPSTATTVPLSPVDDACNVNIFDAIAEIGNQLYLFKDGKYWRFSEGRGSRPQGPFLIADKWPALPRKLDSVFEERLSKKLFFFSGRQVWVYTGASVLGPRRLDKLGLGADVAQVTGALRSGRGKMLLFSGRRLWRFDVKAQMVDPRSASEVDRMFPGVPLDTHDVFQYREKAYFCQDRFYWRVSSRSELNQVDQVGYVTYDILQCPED
Excerpt: MMP-9 was isolated and purified by the procedure of Y. Okada et al. (Yasunori Okada, Yukio Gonoji, Katsumi Naka, Katsuro Tomita, Isao Nakanishi, Kazushi Iwata, Kyoko Yamashita, and Taro Hayakawa: Matrix metalloproteinase 9 (92-kDa gelatinase/type IV collagenase) from HT1080 human fibrosarcoma cells. Purification and activation of the precursor and enzymic properties, J. Biol. Chem., 1992, 267, 21712-21719) in combination with other following methods: 1) Yasunori Okada, Tatsuhisa Morodomi, Jan J, Enghild, Ko Suzuki, Atsushi Yasui, Isao Nakanishi, Guy Salvesen and Hideaki Nagase: Matrix metalloproteinase 2 from human rheumatoid synovial fibroblasts. Purification and activation of the precursor and enzymic properties, Eur. J. Biochem., 1990, 194, 721-730; 2) Robin V Ward, Rosalind M Hembry, John J Reynolds and Gillian Murphy: The purification of tissue inhibitor of metalloproteinase-2 from its 72 kDa progelatinase complex. Biochem. J., 1991, 278, 179-187. In detail, human fibrosarcoma ATCC HT1080 cell line was cultured to confluent in Dulbecco's Modified Medium (DMEM) containing 10% fetal-calf serum at 37° C. for 48 hours. Subsequently, the medium of confluent culture was changed to serum-free DMEM medium. To obtain MMP-9, phorbol-12-myristate-13-acetate (TPA) must be added to this serum-free DMEM medium at a concentration of 50 ng/ml. The TPA-treated medium was centrifuged at 3000 rpm for 15 min, and the supernatant was concentrated to 450 ml by a Toyo-Roshi UP-20 apparatus with an ultrafiltration membrane. Then, proMMP-9 in this concentrated solution was purified by using columns of Gelatin-Sepharose and Concanavalin A-Sepharose. The pool containing proMMP-9 was dialyzed, concentrated (Toyo-Roshi UP-20) and applied to columns of Sephacryl S-200 and Green A matrix for the separation from TIMPs. The obtained proMMP-9 fraction was activated by TPCK-Trypsin (Final conc.: 3 μg/501 React Mix.).
as §1, §2, §3, §4, §5, §6, §7, §8, §9

Another test has as its target T2, MMP-13 (Homo sapiens, UniProt P45452).
T2 construct: catalytic domain (^104Tyr˜^267Gly) was amplified with RT-PCR; His-tag; enterokinase digestion-site
Kind of test: Assay for inhibitory activities on MMPs (fluorogenic peptide substrate), MMP-13. The method, then: In regard to MMP-13, mRNA was prepared from carcinoma cell SW1353 derived from human cartilage stimulate by IL-1 and TNF, and catalytic domain (^[…]) was amplified with RT-PCR. This was cloned in Escherichia coli expression vector […] inserted with His-tag sequence and enterokinase digestion-site, induced and expressed by IPTG (Isopropyl-β-D-thiogalactopyranoside) and expressed in an insoluble fraction. Isolation of MMP-13 from an insoluble fraction was carried out by dissolving in modifier (6 M urea) by a usual method and purification with metal chelate chromatography (Ni […] Sepharose). And then removing modifier (6 M urea) with dialyze and refolding of the enzyme spontaneously gave activated MMP-13. The enzymatic activity on MMPs was analyzed by the method described in “C. Graham Knight, Frances Willenbrock and Gillian Murphy: A novel coumarin-labelled peptide for sensitive continuous assays of the matrix metalloproteinases: FEBS LETT., 296, (1992), 263-266”. The substrate: MOCAc-[…] was purchased from Peptide Institute, Inc., Osaka, Japan. The measurement of the inhibitory activities (IC50) was carried out by the following four methods; (A) Reaction with substrate, enzyme (MMPs) and inhibitor (B) Reaction with substrate and inhibitor, without enzyme (C) Reaction with substrate and enzyme (MMPs), without inhibitor (D) Reaction with substrate only IC50 values were calculated by using the following formula and each fluorescence values of above four methods (A to D). % inhibition={1-(A-B)/(C-D)}×100 IC50 means the concentration required to inhibit 50% of the enzyme activity. The value of inhibitory activity against MMP-2, MMP-8, MMP-9, MMP-12, and MMP-13 measured by above mentioned methods are shown in Table 25 and 26.

In another test the target is T3, MMP-2 (Homo sapiens, UniProt P08253).
T3 sequence (P08253 110-660): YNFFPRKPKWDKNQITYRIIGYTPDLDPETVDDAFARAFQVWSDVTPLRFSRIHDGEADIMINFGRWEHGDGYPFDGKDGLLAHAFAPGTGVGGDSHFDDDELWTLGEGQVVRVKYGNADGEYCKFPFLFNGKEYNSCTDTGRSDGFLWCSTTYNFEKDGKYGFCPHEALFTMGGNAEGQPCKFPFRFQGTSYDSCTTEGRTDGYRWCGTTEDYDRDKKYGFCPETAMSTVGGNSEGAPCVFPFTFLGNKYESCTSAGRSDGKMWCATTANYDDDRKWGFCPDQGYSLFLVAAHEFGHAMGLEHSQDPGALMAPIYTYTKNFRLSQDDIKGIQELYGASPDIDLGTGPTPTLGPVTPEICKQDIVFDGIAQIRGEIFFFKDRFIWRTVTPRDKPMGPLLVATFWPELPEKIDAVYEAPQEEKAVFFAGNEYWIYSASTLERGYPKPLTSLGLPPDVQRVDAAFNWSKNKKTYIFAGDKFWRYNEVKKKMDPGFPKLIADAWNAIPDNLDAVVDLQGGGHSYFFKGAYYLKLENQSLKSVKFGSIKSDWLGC
Kind of test: Assay for inhibitory activities on MMPs (fluorogenic peptide substrate), MMP-2. The method, then: MMP-2 was purchased from Calbiochem-Novabiochem International, Inc.
as §1, §2, §3, §4, §5, §6, §7, §8, §9

Another test has as its target T4, MMP-12 (Homo sapiens, UniProt P39900).
T4 construct: In regard to MMP-12, catalytic domain (^100Phe˜^263Gly) was amplified with RT-PCR; His-tag; enterokinase digestion-site
Nature of the test: Assay for inhibitory activities on MMPs (fluorogenic peptide substrate), MMP-12. Here is the method:
In regard to MMP-12, catalytic domain (^100Phe˜^263Gly) was amplified with RT-PCR from Human Placenta Total RNA. This was cloned in Escherichia coli expression vector pTrc99AHE inserted with His-tag sequence and enterokinase digestion-site, induced and expressed by IPTG (Isopropyl-β-D-thiogalactopyranoside) and expressed in an insoluble fraction. Isolation of MMP-12 from an insoluble fraction was carried out by dissolving in modifier (6 M urea) by a usual method and purification with metal chelate chromatography (Ni Chelateing Sepharose). And then removing modifier (6 M urea) with dialysis and refolding of the enzyme spontaneously gave activated MMP-12.
as §1, §2, §3, §4, §5, §6, §7, §8, §9

T1 sequence (P22894 99-262): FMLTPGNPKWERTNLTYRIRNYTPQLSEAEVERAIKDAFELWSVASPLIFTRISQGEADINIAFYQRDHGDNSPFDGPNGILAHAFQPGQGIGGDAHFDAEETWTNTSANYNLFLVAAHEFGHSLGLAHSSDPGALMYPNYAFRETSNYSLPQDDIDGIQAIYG
T4 sequence (P39900 100-263): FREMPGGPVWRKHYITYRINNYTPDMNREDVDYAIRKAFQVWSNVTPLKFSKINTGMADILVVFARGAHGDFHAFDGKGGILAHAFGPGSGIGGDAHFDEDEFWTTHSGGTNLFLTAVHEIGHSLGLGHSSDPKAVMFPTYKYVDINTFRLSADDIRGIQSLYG

As to `C[C@H](NS(=O)(=O)c1ccc(-c2ccc(C#Cc3ccc4ccccc4c3)cc2)cc1)C(=O)O` [III-3], the IC50 (usually the concentration needed to halve the response being measured) on MMP-8 is 56.3 nM; at MMP-9, above 10000 nM; against MMP-13, 7.86 nM; at MMP-2 it was above 10000 nM; on MMP-12 it was 70.9 nM.
In the case of `CC(C)[C@@H](NS(=O)(=O)c1ccc(-c2ccc(C#Cc3ccc4ccccc4c3)cc2)cc1)C(=O)O` [III-4], the IC50 is 40.1 nM against MMP-8; above 10000 nM on MMP-9; 4.54 nM against MMP-13; 72.6 nM at MMP-2; 47.4 nM on MMP-12.
In the same order, the values of `CC(C)C[C@@H](NS(=O)(=O)c1ccc(-c2ccc(C#Cc3ccc4ccccc4c3)cc2)cc1)C(=O)O` [III-6] are 261 nM, above 10000 nM, 15.1 nM, 499 nM and 363 nM.
The matching figures for `CC(C)C[C@H](NS(=O)(=O)c1ccc(-c2ccc(C#Cc3ccc4ccccc4c3)cc2)cc1)C(=O)O` [III-7]: 13.1 nM, above 10000 nM, 4.32 nM, 327 nM and 20.2 nM.
As for `COc1ccc2cc(C#Cc3ccc(-c4ccc(S(=O)(=O)N[C@H](Cc5ccc(O)cc5)C(=O)O)cc4)cc3)ccc2c1` [III-46], the IC50 at MMP-13 was 9.12 nM; on MMP-2, 57.5 nM.
For `Cc1nc2cc(C#Cc3ccc(-c4ccc(S(=O)(=O)N[C@@H](C)C(=O)O)cc4)cc3)ccc2s1` [III-54], the IC50 stood at 11.3 nM on MMP-13 and 147 nM on MMP-2.
Regarding `O=C(O)[C@H](CO)NS(=O)(=O)c1ccc(-c2ccc(C#Cc3ccc4sccc4c3)cc2)cc1` [III-55], the 50% inhibitory concentration (IC50) against MMP-13 amounted to 10.9 nM; against MMP-2 it was 494 nM.
The matching figures for `O=C(O)[C@H](CO)NS(=O)(=O)c1ccc(-c2ccc(C#Cc3ccc4[nH]ccc4c3)cc2)cc1` [III-56]: 6.05 nM and 65.7 nM.
`CC(C)Oc1cccc(C#Cc2ccc(-c3ccc(S(=O)(=O)N[C@@H](C)C(=O)O)cc3)cc2)c1` [III-60]: the IC50 against MMP-13 is 97.8 nM; against MMP-2 it was 1170 nM.
In the same order, the values of `C[C@H](NS(=O)(=O)c1ccc(-c2ccc(C#Cc3cccc(C(=O)O)c3)cc2)cc1)C(=O)O` [III-61] are 6.17 nM and 349 nM.
For the compound `COCc1cccc(C#Cc2ccc(-c3ccc(S(=O)(=O)N[C@@H](C)C(=O)O)cc3)cc2)c1` [III-62], the 50% inhibitory concentration (IC50) was 18.9 nM against MMP-13 and 402 nM on MMP-2.
For the compound `COCc1cccc(C#Cc2ccc(-c3ccc(S(=O)(=O)N[C@H](C(=O)O)C(C)C)cc3)cc2)c1` [III-63], the IC50 on MMP-13 was determined as 9.5 nM; on MMP-2, 144 nM.
The matching figures for `COCc1cccc(C#Cc2ccc(-c3ccc(S(=O)(=O)N[C@@H](CC(C)C)C(=O)O)cc3)cc2)c1` [III-64]: 21.1 nM and 261 nM.
In the same order, the values of `COc1ccc2cc(C#Cc3ccc(-c4ccc(S(=O)(=O)NC5(C(=O)O)CCCC5)cc4)cc3)ccc2c1` [III-65] are 172 nM and above 10000 nM.
In the same order, the values of `COc1ccc2cc(C#Cc3ccc(-c4ccc(S(=O)(=O)NC5(C(=O)O)CCCCC5)cc4)cc3)ccc2c1` [III-66] are 42.4 nM and above 10000 nM.
For the compound `Cc1c(C(=O)Nc2ccc(-c3ccc(S(=O)(=O)N[C@H](Cc4ccccc4)C(=O)O)cc3)cc2)oc2ccccc12` [VI-46], the IC50 at MMP-13 was found to be 96.5 nM; on MMP-2 it was 747 nM.
The matching figures for `O=C(Nc1ccc(-c2ccc(S(=O)(=O)N[C@@H](Cc3ccccc3)C(=O)O)cc2)cc1)c1cc2ccccc2s1` [VI-48]: 47.3 nM and above 10000 nM.
As to `CC(C)(C)[C@H](NS(=O)(=O)c1ccc(-c2ccc(OCc3ccc4ccccc4c3)cc2)cc1)C(=O)O` [VII-8], the results for the IC50 against MMP-13 and against MMP-2 were 7.93 nM and 91 nM, respectively.
As for `CSCC[C@H](NS(=O)(=O)c1ccc(-c2ccc(OCc3ccc4ccccc4c3)cc2)cc1)C(=O)O` [VII-9], the IC50 against MMP-13 was found to be 26.5 nM; on MMP-2, 188 nM.
The matching figures for `COc1ccc2cc(COc3ccc(-c4ccc(S(=O)(=O)N[C@@H](C)C(=O)O)cc4)cc3)ccc2c1` [VII-10]: 16.5 nM and above 10000 nM.
In the same order, the values of `C[C@@H](NS(=O)(=O)c1ccc(-c2ccc(COc3ccc4ccccc4c3)cc2)cc1)C(=O)O` [VII-11] are 16.2 nM and above 10000 nM.
